The test system of assay [1] is FAM-A40-DABCYL (A40) (DNA, hairpin) AAAAAAAAAAAAAAAAAAAAAAAAAAAAAAAAAAAAAAAA
Briefly: FAM/DABCYL fluorescence quenching titration. The conditions noted are these: 10 mM HEPES pH 7.3; 10 nM DNA; saturation at 0.6 μM coralyne.

Assay [2] concerns label-free A12-MB-A12 (DNA, hairpin) AAAAAAAAAAAACATCATAGTCGAGTGTCCAGGGAAAAAAAAAAAA
Briefly: SYBR Green I fluorescence enhancement on folding. To be noted: 10 mM HEPES pH 7.3; 0.5 μM DNA; 160 nM SYBR Green I.

Assay [3] concerns A12-MB-A12 (FAM/DABCYL-labeled) (DNA, hairpin) AAAAAAAAAAAACATCATAGTCGAGTGTCCAGGGAAAAAAAAAAAA
Description: FAM/DABCYL fluorescence quenching titration. To be noted: 10 mM HEPES pH 7.3; 10 nM DNA; saturation at 0.6 μM coralyne.

Usually Kd stands for a measure of binding affinity in units of concentration. As for `COc1cc2cc3c4cc(OC)c(OC)cc4cc[n+]3c(C)c2cc1OC`, the binding entry in assay [1] and in assay [2] was “yes” each time. For the same compound, in assay [3], the Kd turned out to be 500 nM.

These data come from paper PMC5308256 (2017).
